In patent US10710988B2, “Piperazine derivative” (Astellas Pharma Inc., priority 2016, dated 2020):
Where a name gives a salt, the structure may show the parent alone.

Legend:
Assay type in all cases: cell-based
[1] = target: T1, human MC4 receptor (Homo sapiens, UniProt P32245); experiment: Human MC4 receptor activation, cAMP production in cells transiently expressing the receptor; conditions: FreeStyle 293-F cells expressing human MC4 receptor, α-MSH maximum = 100%
T1 construct: expressed in transfected cells; host or cells: FreeStyle 293-F cells (transient, electroporation)
T1 sequence (P32245 whole entry): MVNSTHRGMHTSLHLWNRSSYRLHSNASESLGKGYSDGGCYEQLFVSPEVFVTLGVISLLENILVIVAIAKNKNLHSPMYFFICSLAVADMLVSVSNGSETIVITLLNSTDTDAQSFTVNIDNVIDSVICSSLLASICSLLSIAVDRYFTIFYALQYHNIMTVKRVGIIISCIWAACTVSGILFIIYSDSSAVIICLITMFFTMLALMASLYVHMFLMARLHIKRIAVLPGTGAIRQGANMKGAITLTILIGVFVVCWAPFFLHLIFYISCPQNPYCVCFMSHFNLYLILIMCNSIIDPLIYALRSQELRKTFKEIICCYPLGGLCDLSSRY
Text: (§1) (1) Construction of Human MC Receptor-Expressing Vector
(§2) A human MC4 receptor gene (GenBank Accession No.: NM_005912.2), a human MC1 receptor gene (GenBank Accession No.: NM_002386.3), or a human MC3 receptor gene (GenBank Accession No.: NM_019888.3) was introduced into an expression vector pcDNA™ 3.1N/V5-His TOPO (registered trademark) (Thermo Fisher Scientific Inc).
(§3) (2) Construction of Cells Transiently Expressing Human MC Receptor
(§4) An expression vector for a human MC4, MC1, or MC3 receptor was introduced into FreeStyle™ 293-F cells (Thermo Fisher Scientific Inc., product number: R790-07). For the introduction, electroporation was employed. That is, 1×10^7 FreeStyle™ 293-F cells were suspended in 80 μL of an Electroporation Buffer (Thermo Fisher Scientific Inc., product number: B201-100), and 20 μg of the expression vector was added thereto. The resultant was put into a cuvette (OC-100 Processing Assembly, MaxCyte, Inc.) and electroporated with MaxCyte STX (registered trademark) (MaxCyte, Inc.). The cells were cultured for a day, suspended in a Cell Banker (registered trademark) 1 (TAKARA BIO INC. or JUJI FIELD Inc., product number: BLC-1), and stored frozen until they were used.
(§5) (3) Measurement of Amount of cAMP Production
(§6) Measurement was carried out by using a LANCE (registered trademark) Ultra cAMP Kit (PerkinElmer, Inc.) in accordance with the attached instructions. That is, after dissolution in DMSO, the test compound (a final concentration of 1 pM to 30 μM) diluted with an assay buffer (Hank's balanced salt solution, 5 mM 4-(2-hydroxyethyl)-1-piperazineethanesulfonic acid (HEPES), 0.5 mM 3-isobutyl-1-methylxanthine (IBMX), 0.1% bovine serum albumin, pH 7.4), or α-MSH (Bachem Inc., a final concentration of 1 pM to 30 μM) was added to OptiPlate-384 (PerkinElmer, Inc.). Furthermore, the suspension of the cells transiently expressing the human MC4, MC1, or MC3 receptor prepared using the assay buffer was added thereto at 1,000 cells/well, and then left to stand at room temperature for about 1 hour. Thereafter, an Eu-cAMP tracer solution and an ULight™-anti-cAMP solution were added thereto, and then the resulting solution was left to stand at room temperature for about 1 hour. The amount of cAMP was calculated using EnVision (registered trademark) (PerkinElmer Inc.).
(§7) For the agonistic activity, the efficacy (EC50 (μM)) was calculated by a non-linear regression method with a Sigmoid-Emax model, by defining the maximum reaction using α-MSH as 100% and the reaction using the vehicle alone as 0%, respectively.

[2] = target: T2, human MC1 receptor (Homo sapiens, UniProt Q01726); experiment: Human MC1 receptor activation, cAMP production in cells transiently expressing the receptor; conditions: FreeStyle 293-F cells expressing human MC1 receptor, α-MSH maximum = 100%
T2 construct: expressed in transfected cells; host or cells: FreeStyle 293-F cells (transient, electroporation)
T2 sequence (Q01726 whole entry): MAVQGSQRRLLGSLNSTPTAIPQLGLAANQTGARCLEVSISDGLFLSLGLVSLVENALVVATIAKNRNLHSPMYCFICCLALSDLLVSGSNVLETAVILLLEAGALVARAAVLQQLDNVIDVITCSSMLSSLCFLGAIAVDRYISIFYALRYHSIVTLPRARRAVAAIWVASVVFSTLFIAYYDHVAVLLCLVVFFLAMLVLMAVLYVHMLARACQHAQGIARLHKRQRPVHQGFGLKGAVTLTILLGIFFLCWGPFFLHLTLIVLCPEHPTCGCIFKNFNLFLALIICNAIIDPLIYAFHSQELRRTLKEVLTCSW
Text: as §1, §2, §3, §4, §5, §6, §7

[3] = target: T3, human MC3 receptor (Homo sapiens, UniProt P41968); experiment: Human MC3 receptor activation, cAMP production in cells transiently expressing the receptor; conditions: FreeStyle 293-F cells expressing human MC3 receptor, α-MSH maximum = 100%
T3 construct: expressed in transfected cells; host or cells: FreeStyle 293-F cells (transient, electroporation)
T3 sequence (P41968 whole entry): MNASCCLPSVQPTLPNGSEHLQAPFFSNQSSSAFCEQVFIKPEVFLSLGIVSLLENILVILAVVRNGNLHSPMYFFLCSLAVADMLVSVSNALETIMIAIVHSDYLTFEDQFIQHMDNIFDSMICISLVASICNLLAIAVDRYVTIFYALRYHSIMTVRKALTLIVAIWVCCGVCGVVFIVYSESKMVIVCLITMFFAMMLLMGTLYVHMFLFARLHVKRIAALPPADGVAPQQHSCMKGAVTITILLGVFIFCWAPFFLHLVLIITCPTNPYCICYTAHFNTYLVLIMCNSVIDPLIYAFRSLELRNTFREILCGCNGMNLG
Text: as §1, §2, §3, §4, §5, §6, §7

[4] = target: T4, rat MC4 receptor (Rattus norvegicus, UniProt P70596); experiment: Rat MC4 receptor activation, cAMP production in cells transiently expressing the receptor; conditions: FreeStyle 293-F cells expressing rat MC4 receptor, α-MSH maximum = 100%
T4 construct: expressed in transfected cells; host or cells: FreeStyle 293-F cells (transient, electroporation)
T4 sequence (P70596 whole entry): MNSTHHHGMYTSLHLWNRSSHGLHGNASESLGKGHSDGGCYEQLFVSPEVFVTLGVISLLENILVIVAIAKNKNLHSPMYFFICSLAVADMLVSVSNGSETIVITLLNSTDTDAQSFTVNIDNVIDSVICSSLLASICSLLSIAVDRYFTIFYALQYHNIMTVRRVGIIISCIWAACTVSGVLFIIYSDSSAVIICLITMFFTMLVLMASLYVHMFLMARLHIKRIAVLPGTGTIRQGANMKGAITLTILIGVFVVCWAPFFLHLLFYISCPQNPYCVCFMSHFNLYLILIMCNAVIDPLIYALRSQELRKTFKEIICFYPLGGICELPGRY
Text: (1) Construction of Rat MC4 Receptor-Expressing Vector
A rat MC4 receptor gene (GenBank Accession No.: NM_013099.3) was introduced into an expression vector pcDNA™ 3.1N/V5-His TOPO (registered trademark) (Thermo Fisher Scientific Inc.).
(2) Construction of Cells Transiently Expressing Rat MC4 Receptor
as §4, with “rat MC4” for “human MC4, MC1, or MC3”, “Inc.).” for “Inc., product number: R790-07).”, “electroporation buffer” for “Electroporation Buffer”, “Inc.),” for “Inc., product number: B201-100),”, “Inc.),” for “Inc., product number: BLC-1),”
as §5
Measurement was carried out in accordance with the attached instructions, using a LANCE (registered trademark) Ultra cAMP Kit (PerkinElmer, Inc.). That is, after dissolution in DMSO, the test compound (a final concentration of 1 pM to 30 μM) diluted with an assay buffer (Hank's balanced salt solution, 5 mM HEPES, 0.5 mM IBMX, 0.1% bovine serum albumin, pH 7.4), or α-MSH (Bachem Inc., a final concentration of 1 pM to 30 μM) was added to OptiPlate-384 (PerkinElmer, Inc.). Furthermore, the suspension of the cells transiently expressing the rat MC receptor that was prepared using the assay buffer was added thereto at 1,000 cells/well, and then left to stand at room temperature for about 1 hour. Thereafter, an Eu-cAMP tracer solution and an ULight™-anti-cAMP solution were added thereto, and the resulting solution was left to stand at room temperature for about 1 hour. The amount of cAMP was calculated using EnVision (registered trademark) (PerkinElmer Inc).
For the agonistic activity, an efficacy (EC50 (μM)) was calculated by a non-linear regression method with a Sigmoid-Emax model, by defining the maximum reaction using α-MSH as 100% and the reaction using a vehicle alone as 0%, respectively.

EC50 [1] | EC50 [2] | EC50 [3] | EC50 [4] | Compound
77 nM | 680 nM | 4.4 µM | 15 nM | CC(=O)N[C@@H](Cc1ccc(Cl)cc1)C(=O)N1CCN(C(=O)[C@@H]2CN(C(C)(C)C)C[C@H]2c2ccc(F)cc2F)[C@@H](C)C1 [Example 7]
89 nM |  |  |  | C[C@H]1CN(C(=O)[C@@H](NC(=O)C2CC2)C2CCCCC2)CCN1C(=O)[C@@H]1CN(C(C)(C)C)C[C@H]1c1ccc(F)cc1F [Example 9]
12 nM |  |  |  | CC(=O)N(C)[C@H](C(=O)N1CCN(C(=O)[C@@H]2CN(C(C)(C)C)C[C@H]2c2ccc(F)cc2F)[C@@H](C)C1)C1CCCCC1 [Example 10]
14 nM |  |  |  | COC[C@H]1CN(C(=O)[C@H](CC(C)C)NC(C)=O)CCN1C(=O)C1CN(C(C)(C)C)CC1c1ccc(Br)cc1F (stereo partly shown) [Example 12]
34 nM |  |  |  | CCC(=O)N[C@@H](CC(C)(C)C)C(=O)N1CCN(C(=O)[C@@H]2CN(C3CCOCC3)C[C@H]2c2ccc(Cl)cc2F)CC12CC2 [Example 13]
220 nM |  |  |  | CC(=O)N[C@H](C(=O)N1CCN(C(=O)[C@@H]2CN(C(C)(C)C)C[C@H]2c2ccc(F)cc2F)[C@@H](C)C1)C1CCCC1 [Example 15]
40 nM |  |  |  | CC(=O)N[C@@H](Cc1cccc(F)c1)C(=O)N1CCN(C(=O)[C@@H]2CN(C(C)(C)C)C[C@H]2c2ccc(F)cc2F)[C@@H](C)C1 [Example 17]
62 nM |  |  |  | CC(=O)N[C@@H](CC1CCC(C)(C)CC1)C(=O)N1CCN(C(=O)[C@@H]2CN(C(C)(C)C)C[C@H]2c2ccc(F)cc2F)[C@@H](C)C1 [Example 18, N-[(2S)-1-[(3S)-4-{[(3 S,4R)-1-tert-butyl-4-(2,4-difluorophenyl)pyrrolidin-3-yl]carbonyl}-3-methylpiperazin-1-yl]-3-(4,4-dimethylcyclohexyl)-1-oxopropan-2-yl]acetamide monohydrochloride]
380 nM |  |  |  | CC(=O)N[C@@H](CC1CCC(F)(F)CC1)C(=O)N1CCN(C(=O)[C@@H]2CN(C(C)(C)C)C[C@H]2c2ccc(F)cc2F)[C@@H](C)C1 [Example 19]
130 nM |  |  |  | CCC(=O)N[C@@H](CC(C)(C)C)C(=O)N1CCN(C(=O)[C@@H]2CN(C3CCOCC3)C[C@H]2c2ccc(Cl)cc2F)[C@@H](C)C1 [Example 21]
180 nM |  |  |  | CC(=O)N[C@@H](Cc1ccccc1Cl)C(=O)N1CCN(C(=O)C2CN(C(C)(C)C)CC2c2cc(F)c(Cl)c(F)c2)[C@@H](C)C1 (stereo partly shown) [Example 22]
23 nM | 870 nM | 0.45 µM | 4.8 nM | CC(=O)N[C@@H](CC(C)(C)C)C(=O)N1CCN(C(=O)C2CN(C(C)(C)C)CC2c2ccc(Cl)cn2)[C@@H](C)C1 (stereo partly shown) [Example 23]
78 nM | 1500 nM | 6.4 µM | 46 nM | CC(=O)N[C@@H](CC(C)(C)C)C(=O)N1CCN(C(=O)[C@@H]2CN(C(C)C)C[C@H]2c2ccc(F)cc2F)[C@@H](C)C1 [Example 24, N-{(2S)-1-[(3S)-4-{[(3S,4R)-4-(2,4-difluorophenyl)-1-isopropylpyrrolidin-3-yl]carbonyl}-3-methylpiperazin-1-yl]-4,4-dimethyl-1-oxopentan-2-yl}acetamide monohydrochloride]
120 nM |  |  |  | CC(=O)N[C@@H](CC(C)(C)C)C(=O)N1CCN(C(=O)[C@@H]2CN(C3CCCCC3)C[C@H]2c2ccc(F)cc2F)[C@@H](C)C1 [Example 25]
5000 nM |  |  |  | CC(=O)N[C@@H](CC(C)(C)C)C(=O)N1CCN(C(=O)[C@@H]2CN(C)C[C@H]2c2ccc(F)cc2F)[C@@H](C)C1 [Example 26]
1000 nM |  |  |  | CC(=O)N[C@@H](CC(C)(C)C)C(=O)N1CCN(C(=O)[C@@H]2CN(CC3CC3)C[C@H]2c2ccc(F)cc2F)[C@@H](C)C1 [Example 27]
5.5 nM |  |  |  | C[C@H]1CN(C(=O)[C@H](Cc2ccccc2Cl)N(C)C)CCN1C(=O)[C@@H]1CN(C(C)(C)C)C[C@H]1c1ccc(F)cc1F [Example 28, (2S)-1-[(3S)-4-{[(3 S,4R)-1-tert-butyl-4-(2,4-difluorophenyl)pyrrolidin-3-yl]carbonyl}-3-methylpiperazin-1-yl]-3-(2-chlorophenyl)-2-(dimethylamino)propan-1-one dihydrochloride]
280 nM |  |  |  | CC(C)C[C@H](NS(C)(=O)=O)C(=O)N1CCN(C(=O)[C@@H]2CN(C3CCOCC3)C[C@H]2c2ccc(Cl)cc2F)[C@@H](C)C1 [Example 29, N-{(2S)-1-[(3S)-4-{[(3S,4R)-4-(4-chloro-2-fluorophenyl)-1-(tetrahydro-2H-pyran-4-yl)pyrrolidin-3-yl]carbonyl}-3-methylpiperazin-1-yl]-4-methyl-1-oxopentan-2-yl}methanesulfonamide monohydrochloride]
1800 nM |  |  |  | C[C@H]1CN(C(=O)[C@@H](N)C2CCCCC2)CCN1C(=O)[C@@H]1CN(C(C)(C)C)C[C@H]1c1ccc(F)cc1F [Example 30, (2S)-2-amino-1-[(3S)-4-{[(3S,4R)-1-tert-butyl-4-(2,4-difluorophenyl)pyrrolidin-3-yl]carbonyl}-3-methylpiperazin-1-yl]-2-cyclohexylethanone dihydrochloride]
